Several values for one entry are separate records, joined by “and”; a condition that tells them apart may be missing. Equal values may be shown once. A value given as a limit tells only on which side of the number the result lay.

Sequence of PI3Kα (P42336 whole entry): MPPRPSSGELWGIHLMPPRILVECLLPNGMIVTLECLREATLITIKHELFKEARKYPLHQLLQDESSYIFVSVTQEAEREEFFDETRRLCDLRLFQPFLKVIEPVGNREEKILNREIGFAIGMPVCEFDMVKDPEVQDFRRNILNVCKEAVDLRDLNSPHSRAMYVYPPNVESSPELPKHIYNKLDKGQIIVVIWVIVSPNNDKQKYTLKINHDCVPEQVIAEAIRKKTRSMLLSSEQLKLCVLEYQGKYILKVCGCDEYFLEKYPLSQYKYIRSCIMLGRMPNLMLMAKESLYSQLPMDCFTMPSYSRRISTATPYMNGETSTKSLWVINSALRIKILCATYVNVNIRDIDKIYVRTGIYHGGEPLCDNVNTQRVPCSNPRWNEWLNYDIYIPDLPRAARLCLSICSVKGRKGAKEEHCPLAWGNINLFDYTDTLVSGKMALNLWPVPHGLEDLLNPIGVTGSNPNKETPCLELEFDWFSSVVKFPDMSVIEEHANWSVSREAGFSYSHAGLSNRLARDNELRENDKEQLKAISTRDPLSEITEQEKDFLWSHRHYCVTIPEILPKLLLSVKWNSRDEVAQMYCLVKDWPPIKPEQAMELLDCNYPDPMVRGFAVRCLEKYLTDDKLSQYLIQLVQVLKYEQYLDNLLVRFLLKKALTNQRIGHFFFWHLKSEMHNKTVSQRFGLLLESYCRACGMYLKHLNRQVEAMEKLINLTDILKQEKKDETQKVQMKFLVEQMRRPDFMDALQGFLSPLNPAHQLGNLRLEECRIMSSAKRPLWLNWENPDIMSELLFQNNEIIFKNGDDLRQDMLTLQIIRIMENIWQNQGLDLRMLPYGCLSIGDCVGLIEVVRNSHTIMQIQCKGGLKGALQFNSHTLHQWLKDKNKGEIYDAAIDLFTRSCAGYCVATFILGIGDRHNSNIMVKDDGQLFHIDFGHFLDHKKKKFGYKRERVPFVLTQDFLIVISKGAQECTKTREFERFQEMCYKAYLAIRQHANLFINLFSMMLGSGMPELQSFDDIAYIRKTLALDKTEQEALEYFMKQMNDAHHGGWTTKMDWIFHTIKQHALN
Sequence of PI3Kα (P27986 whole entry partner): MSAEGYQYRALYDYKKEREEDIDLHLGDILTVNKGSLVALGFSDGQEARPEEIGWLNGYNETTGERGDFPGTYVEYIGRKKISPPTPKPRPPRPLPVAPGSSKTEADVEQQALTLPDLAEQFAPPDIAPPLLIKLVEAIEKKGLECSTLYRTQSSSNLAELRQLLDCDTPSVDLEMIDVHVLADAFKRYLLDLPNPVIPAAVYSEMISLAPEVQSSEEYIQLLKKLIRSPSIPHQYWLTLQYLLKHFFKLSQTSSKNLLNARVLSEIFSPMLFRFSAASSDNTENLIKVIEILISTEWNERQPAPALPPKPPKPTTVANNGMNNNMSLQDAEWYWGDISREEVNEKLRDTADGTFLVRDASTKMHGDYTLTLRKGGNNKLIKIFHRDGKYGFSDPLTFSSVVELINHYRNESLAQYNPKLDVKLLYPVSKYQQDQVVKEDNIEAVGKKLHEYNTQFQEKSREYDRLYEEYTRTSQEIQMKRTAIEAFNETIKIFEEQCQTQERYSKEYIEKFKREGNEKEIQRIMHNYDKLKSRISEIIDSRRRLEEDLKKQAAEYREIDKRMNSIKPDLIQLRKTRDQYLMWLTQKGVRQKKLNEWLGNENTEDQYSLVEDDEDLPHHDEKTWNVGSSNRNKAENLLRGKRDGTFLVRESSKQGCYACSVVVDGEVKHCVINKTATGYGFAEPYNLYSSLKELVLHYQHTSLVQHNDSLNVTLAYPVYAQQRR

In the first assay the target is mTORC1 (mTOR/GbL/Raptor) (Homo sapiens, UniProt P42345). In words: mTOR/GbL/Raptor (mTORC1) ELISA Assay. Format: biochemical. Particulars: 0.2 nM mTORC1, 10 μM ATP, 50 nM NHis-tagged 4E-BP1; phosphorylation of 4E-BP1; read-out: IC50. The protocol:
mTOR/GbL/Raptor (mTORC1) ELISA Assay
The measurement of mTORC1 enzyme activity was performed in an ELISA assay format following the phosphorylation of 4E-BP1 protein. All experiments were performed in the 384-well format. Generally, 0.5 μL DMSO containing varying concentrations of the test compound was mixed with 15 μL enzyme solution. Kinase reactions were initiated with the addition of 15 μL of substrates-containing solution. The assay conditions were as follows; 0.2 nM mTORC1, 10 μM ATP and 50 nM NHis-tagged 4E-BP1 in 20 mM Hepes, pH 7.2, 1 mM DTT, 50 mM NaCl, 10 mM MnCl2, 0.02 mg/mL BSA, 0.01% CHAPS, 50 mM β-glycerophosphate. Following an incubation of 120 minutes at ambient temperature, 20 μL of the reaction volume was transferred to a Ni-Chelate-coated 384-well plate. The binding step of the 4E-BP1 protein proceeded for 60 minutes, followed by washing 4 times each with 50 μL of Tris-buffered saline solution (TBS). Anti-phospho-4E-BP1 rabbit-IgG (20 μL, 1:5000) in 5% BSA-TBST (0.2% Tween-20 in TBS) was added and further incubated for 60 minutes. Incubation with a secondary HRP-tagged anti-IgG was similarly performed after washing off the primary antibody (4 washes of 50 μL). Following the final wash step with TBST, 20 μL of SuperSignal ELISA Femto (Pierce Biotechnology) was added and the luminescence measured using an EnVision plate reader.
(In general: An ELISA detects its analyte on a solid surface through an enzyme-linked reagent.)
A word on the IC50: it is the concentration that gives 50% inhibition. `Cc1nc2cc(-c3ccc4c(c3)CN(C(=O)N3CC[C@@](C)(O)C[C@@H]3c3ccccc3)CCO4)ccc2[nH]1` (racemic) [Compound 133, (±)-(2R,4R)-4-methyl-1-{[7-(2-methyl-1H-benzimidazol-5-yl)-2,3-dihydro-1,4-benzoxazepin-4(5H)-yl]carbonyl}-2-phenylpiperidin-4-ol]: the IC50 lay in the range of 700 to 2600 nM.
The same measure, in the same setting: as for `CC1CCN(C(=O)N2CCOc3ccc(-c4ccc(N)nn4)cc3C2)CC1` [Compound 1, 6-{4-[(4-methylpiperidin-1-yl)carbonyl]-2,3,4,5-tetrahydro-1,4-benzoxazepin-7-yl}pyridazin-3-amine], the figure is 700 to 2600 nM; as for `CC1CCN(C(=O)N2CCOc3ccc(-c4cnc(N)cn4)cc3C2)CC1` [Compound 4, 5-{4-[(4-methylpiperidin-1-yl)carbonyl]-2,3,4,5-tetrahydro-1,4-benzoxazepin-7-yl}pyrazin-2-amine], 700 to 2600 nM.
As to `Nc1cnc(-c2ccc3c(c2)CN(C(=O)N2CCC(C(F)(F)F)CC2)CCO3)cn1` [Compound 6, 5-(4-{[4-(trifluoromethyl)piperidin-1-yl]carbonyl}-2,3,4,5-tetrahydro-1,4-benzoxazepin-7-yl)pyrazin-2-amine], the IC50 was 250 to 700 nM.
The same measure, in the same setting: as for `CC1CCN(C(=O)N2CCOc3ccc(-c4cc(N)[nH]n4)cc3C2)CC1` [Compound 10, 3-{4-[(4-methylpiperidin-1-yl)carbonyl]-2,3,4,5-tetrahydro-1,4-benzoxazepin-7-yl}-1H-pyrazol-5-amine], the figure is 700 to 2600 nM; as for `Cc1nc2ccc(-c3ccc4c(c3)CN(C(=O)N3CCCC[C@H]3c3ccccc3)CCO4)cc2[nH]1` [Compound 65, 7-(2-methyl-1H-benzimidazol-6-yl)-4-{[(2S)-2-phenylpiperidin-1-yl]carbonyl}-2,3,4,5-tetrahydro-1,4-benzoxazepine], not above 50 nM.
On to `Cc1nc2ccc(-c3ccc4c(c3)CN(C(=O)N3[C@@H]5CC[C@H]3C[C@@H](N)C5)CCO4)cc2[nH]1` [Compound 77, 8-{[7-(2-methyl-1H-benzimidazol-6-yl)-2,3-dihydro-1,4-benzoxazepin-4(5H)-yl]carbonyl}-8-azabicyclo[3.2.1]octan-3-(endo)-amine], for which the IC50 fell in the range of 700 to 2600 nM.
Consider `Cc1nc2ccc(-c3ccc4c(c3)CN(C(=O)N3CCCCC3Cc3ccccc3)CCO4)cc2[nH]1` (stereo not shown) [Compound 104, 7-(2-methyl-1H-benzimidazol-6-yl)-4-{[2-(phenylmethyl)piperidin-1-yl]carbonyl}-2,3,4,5-tetrahydro-1,4-benzoxazepine], for which the IC50 is 250 to 700 nM.
Regarding `Cc1nc2ccc(-c3ccc4c(c3)CN(C(=O)N3CCCCC3c3ccc(F)cc3C)CCO4)cc2[nH]1` (stereo not shown) [Compound 117, 4-{[2-(4-fluoro-2-methylphenyl)piperidin-1-yl]carbonyl}-7-(2-methyl-1H-benzimidazol-6-yl)-2,3,4,5-tetrahydro-1,4-benzoxazepine], the IC50 fell in the range of 700 to 2600 nM.
For the molecule `Cc1nc2ccc(-c3ccc4c(c3)CN(C(=O)N3CCCCC3c3ccccc3C)CCO4)cc2[nH]1` (stereo not shown) [Compound 126, 7-(2-methyl-1H-benzimidazol-6-yl)-4-{[2-(2-methylphenyl)piperidin-1-yl]carbonyl}-2,3,4,5-tetrahydro-1,4-benzoxazepine], the IC50 was 700 to 2600 nM.
On the same count and under the same terms, to `Cc1nc2ccc(-c3ccc4c(c3)CN(C(=O)N3CCC(O)(c5ccc(C(F)(F)F)cc5)CC3)CCO4)cc2[nH]1` [Compound 141, 1-{[7-(2-methyl-1H-benzimidazol-6-yl)-2,3-dihydro-1,4-benzoxazepin-4(5H)-yl]carbonyl}-4-[4-(trifluoromethyl)phenyl]piperidin-4-ol] belongs 250 to 700 nM.
On to `Cc1nc2ccc(-c3ccc4c(c3)CN(C(=O)N3CCN(C)C(=O)C3)CCO4)cc2[nH]1` [Compound 146, 1-methyl-4-{[7-(2-methyl-1H-benzimidazol-6-yl)-2,3-dihydro-1,4-benzoxazepin-4(5H)-yl]carbonyl}piperazin-2-one], for which the IC50 is 250 to 700 nM.
Take `Cc1nc2ccc(-c3ccc4c(c3)CN(C(=O)NC3[C@H]5C[C@@H]6C[C@@H](C[C@H]3C6)C5)CCO4)cc2[nH]1` (stereo partly drawn) [Compound 149, 7-(2-methyl-1H-benzimidazol-6-yl)-N-[(1r,3r,5R,7R)-tricyclo[3.3.1.1~3,7~]dec-2-yl]-2,3-dihydro-1,4-benzoxazepine-4(5H)-carboxamide]: the IC50 lay in the range of 700 to 2600 nM.
Regarding `Cc1nc2ccc(-c3ccc4c(c3)CN(C(=O)N3CCN(Cc5c(F)cccc5Cl)CC3)CCO4)cc2[nH]1` [Compound 152, 4-({4-[(2-chloro-6-fluorophenyl)methyl]piperazin-1-yl}carbonyl)-7-(2-methyl-1H-benzimidazol-6-yl)-2,3,4,5-tetrahydro-1,4-benzoxazepine], the IC50 lay in the range of 250 to 700 nM.
Regarding `CCC1CC2(CCN(C(=O)N3CCOc4ccc(-c5ccc6nc(C)[nH]c6c5)cc4C3)CC2)CC(=O)N1` (stereo not shown) [Compound 155, 4-ethyl-9-{[7-(2-methyl-1H-benzimidazol-6-yl)-2,3-dihydro-1,4-benzoxazepin-4(5H)-yl]carbonyl}-3,9-diazaspiro[5.5]undecan-2-one], the IC50 is 250 to 700 nM.
Regarding `Cc1nc2ccc(-c3ccc4c(c3)CN(C(=O)N3CCN(c5ccccc5Cl)CC3)CCO4)cc2[nH]1` [Compound 159, 4-{[4-(2-chlorophenyl)piperazin-1-yl]carbonyl}-7-(2-methyl-1H-benzimidazol-6-yl)-2,3,4,5-tetrahydro-1,4-benzoxazepine], the IC50 was in the range of 700 to 2600 nM.
For `COc1cccc(N2CCN(C(=O)N3CCOc4ccc(-c5ccc6nc(C)[nH]c6c5)cc4C3)CC2)c1` [Compound 160, 7-(2-methyl-1H-benzimidazol-6-yl)-4-({4-[3-(methyloxy)phenyl]piperazin-1-yl}carbonyl)-2,3,4,5-tetrahydro-1,4-benzoxazepine], the half-maximal inhibitory concentration (IC50) was in the range of 700 to 2600 nM.
`Cc1nc2ccc(-c3ccc4c(c3)CN(C(=O)N3CCN(c5ccccc5F)CC3)CCO4)cc2[nH]1` [Compound 165, 4-{[4-(2-fluorophenyl)piperazin-1-yl]carbonyl}-7-(2-methyl-1H-benzimidazol-6-yl)-2,3,4,5-tetrahydro-1,4-benzoxazepine]: the IC50 lay in the range of 700 to 2600 nM.
Take `Cc1nc2ccc(-c3ccc4c(c3)CN(C(=O)N3CCC(Cc5ccccc5)CC3)CCO4)cc2[nH]1` [Compound 171, 7-(2-methyl-1H-benzimidazol-6-yl)-4-{[4-(phenylmethyl)piperidin-1-yl]carbonyl}-2,3,4,5-tetrahydro-1,4-benzoxazepine]: the IC50 lay within 250 to 700 nM.
`CCCCN(Cc1ccccc1)C(=O)N1CCOc2ccc(-c3ccc4nc(C)[nH]c4c3)cc2C1` [Compound 173, N-butyl-7-(2-methyl-1H-benzimidazol-6-yl)-N-(phenylmethyl)-2,3-dihydro-1,4-benzoxazepine-4(5H)-carboxamide]: the IC50 lay in the range of 250 to 700 nM.

A further assay has as its target PI3Kα (Homo sapiens, UniProt P42336). Put plainly: PI3K Biochemical Assays (ATP consumption, luciferase-luciferin chemiluminescence). As to conditions: PI3Kα 1.5 nM, ATP 1 μM, PIP2 10 μM; percent of ATP consumed. The method, then:
PI3Kα activity is measured as the percent of ATP consumed following the kinase reaction using luciferase-luciferin-coupled chemiluminescence. Reactions were conducted in 384-well white, medium binding microtiter plates (Greiner). Kinase reactions were initiated by combining test compounds, ATP, substrate (PIP2), and kinase in a 20 μL volume in a buffer solution. The standard PI3Kalpha assay buffer is composed 50 mM Tris, pH 7.5, 1 mM EGTA, 10 mM MgCl2, 1 mM DTT and 0.03% CHAPS. The standard assay concentrations for enzyme, ATP, and substrate are 1.5 nM, 1 μM, and 10 μM, respectively. The reaction mixture was incubated at ambient temperature for approximately 2 h. Following the kinase reaction, a 10 μL aliquot of luciferase-luciferin mix (Promega Kinase-Glo) was added and the chemiluminescence signal measured using a Victor2 plate reader (Perkin Elmer). Total ATP consumption was limited to 40-60% and IC50 values of control compounds correlate well with literature references. Substituting PI3Kα with PI3KIβ, […], or […], the inhibitory activity of the compounds for the other isoforms of I3K were measured.
For the molecule `CC1CCN(C(=O)N2CCOc3ccc(-c4cc(NCc5ccccc5)[nH]n4)cc3C2)CC1` [Compound 9, 3-{4-[(4-methylpiperidin-1-yl)carbonyl]-2,3,4,5-tetrahydro-1,4-benzoxazepin-7-yl}-N-(phenylmethyl)-1H-pyrazol-5-amine], the half-maximal inhibitory concentration (IC50) lay in the range of 1000 to 3000 nM.
On the same count and under the same terms, to `Cc1nc2ccc(-c3ccc4c(c3)CN(C(=O)N3CCC(C5CCNCC5)CC3)CCO4)cc2[nH]1` [Compound 71, 1-{[7-(2-methyl-1H-benzimidazol-6-yl)-2,3-dihydro-1,4-benzoxazepin-4(5H)-yl]carbonyl}-4,4-bipiperidine] belongs 200 to 500 nM and 500 to 1000 nM; to `Cc1nc2ccc(-c3ccc4c(c3)CN(C(=O)N3CC[C@@H](O)C3)CCO4)cc2[nH]1` [Compound 78, (3R)-1-{[7-(2-methyl-1H-benzimidazol-6-yl)-2,3-dihydro-1,4-benzoxazepin-4(5H)-yl]carbonyl}pyrrolidin-3-ol], 500 to 1000 nM.
In turn, `Cc1nc2ccc(-c3ccc4c(c3)CN(C(=O)N3CC[C@H](O)C3)CCO4)cc2[nH]1` [Compound 82, (3S)-1-{[7-(2-methyl-1H-benzimidazol-6-yl)-2,3-dihydro-1,4-benzoxazepin-4(5H)-yl]carbonyl}pyrrolidin-3-ol] had an IC50 of 1000 to 3000 nM.
On the same count and under the same terms, to `Cc1nc2ccc(-c3ccc4c(c3)CN(C(=O)N3CCCC3)CCO4)cc2[nH]1` [Compound 87, 7-(2-methyl-1H-benzimidazol-6-yl)-4-(pyrrolidin-1-ylcarbonyl)-2,3,4,5-tetrahydro-1,4-benzoxazepine] belongs 500 to 1000 nM.

Values taken from patent US8637499B2, “Benzoxazepines as inhibitors of PI3K/mTOR and methods of their use and manufacture” (Exelixis, Inc., priority 2009, dated 2014).
